From patent US20130317052A1, “QUINOLINE DERIVATIVE COMPOUND, METHOD FOR PREPARING SAME, AND PHARMACEUTICAL COMPOSITION CONTAINING SAME” (Dong-A ST Co., Ltd., priority 2010, published 2013) come the findings set out here.

For test [1], the target named is T1, dopamine-D2 receptor (human dopamine D2s) (Homo sapiens, UniProt P14416).
T1 construct: expressed in transfected cells; host or cells: CHO cells
In words: Assay for affinity for dopamine receptor: competitive inhibition of [3H]spiperone binding. The following applies: 10 μM compound; 0.16 nM [3H]spiperone; CHO cells transfected with human dopamine D2s gene; mean of two experiments. As to the method:
Affinity of the compounds of the present invention for the dopamine-D2 receptor, which is found in the wall of the gastric tract of mammals and inhibits gastrointestinal motility, was determined by measuring competitive inhibition against the binding to the receptor of a radio-labeled ligand which is known for its affinity for the receptor. In this regard, the experiment was performed according to the method described in [Heys G et al. Mol Endocrinol. 6:920, 1992] and [Grandy D K et al. Proc Natl Acad Sci USA. 86:9762, 1989].
In tris-HCl buffer ([…], pH 7.4, 120 mM NaCl, 5 mM KCl, 2 mM CaCl2, 1 mM MgCl2) 150 μg of Chinese hamster ovary (CHO) cells transfected with a human dopamine D2s gene were incubated at 25° C. for 120 min with 0.16 nM of tritium Spiperone (^3[H] Spiperon [NEN, 250 μCi]) and 10 μM of the compound of interest of the present invention. After completion of the reaction, the reaction mixture was filtered through Whatman GF/B filter (unifilter-96, Lot: 6005177, PerkinElmer) to separate ligand-bound receptors. These bound receptors were washed three times with a Tris-HCl buffer. Then 10 mL of a scintillation cocktail (Lot: 03999, Fluka) was added and reacted for 16 hrs or longer to measure radiation activity using a beta-counter (Packcard) in order to calculate the quantity of tritium spiperone bound to the receptor. Meanwhile, 10 μM of Haloperidol (H1512, Sigma) was incubated in the presence of 0.16 nM tritium Spiperone to determine a nonspecific binding value. The experiment was independently carried out twice, and receptor affinity was calculated using the following Equation 1.
Receptor Affinity(%)={(Total CPM−Nonspecific Binding CPM−CPM of tritium Spiperone remaining after addition of interest compound of the present invention)/(Total CPM−Nonspecific Binding CPM)}×100 Equation 1
(CPM: counter per minute)

The target in test [2] is T2, serotonin-1B receptor (Rattus norvegicus, UniProt P28564).
T2 construct: cell membranes of the cerebral cortex excised from male Winstar rats; from tissue; host or cells: rat cerebral cortex membranes
T2 sequence (P28564 whole entry): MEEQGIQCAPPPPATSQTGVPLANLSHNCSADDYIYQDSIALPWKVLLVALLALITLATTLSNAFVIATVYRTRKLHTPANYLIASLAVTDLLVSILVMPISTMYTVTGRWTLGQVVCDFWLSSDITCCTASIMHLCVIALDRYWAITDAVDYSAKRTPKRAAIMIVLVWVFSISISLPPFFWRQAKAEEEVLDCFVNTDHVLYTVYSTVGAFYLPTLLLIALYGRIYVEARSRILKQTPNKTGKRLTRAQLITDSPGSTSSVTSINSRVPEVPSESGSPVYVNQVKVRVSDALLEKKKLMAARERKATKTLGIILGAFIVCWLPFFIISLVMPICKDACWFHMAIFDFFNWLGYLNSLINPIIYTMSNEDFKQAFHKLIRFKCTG
In words: Assay for affinity for serotonin-1B receptor: competitive inhibition of [125I]cyanopindolol binding to rat cerebral cortex membranes. The following applies: 10 μM compound, 10 pM [125I]cyanopindolol, mean of two experiments. As to the method: Compounds of the present invention were examined for affinity for the serotonin-1B receptor which can exert a relaxation effect on the stomach to relieve impaired gastric accommodation of functional dyspepsia patients in response to an agonist.
In a Tris-HCl buffer (50 mM Tris-HCl, pH 7.4, 120 mM NaCl, 5 mM KCl, 2 mM CaCl2, 1 mM MgCl2), 4 mg of cell membranes of the cerebral cortex excised from male Winstar rats, each weighing 175±25 g, was incubated at 37° C. for 1.5 hrs with 10 pM of ^125[I] cyanopindolol (PerkinElmer, 100 μCi) and 10 μM of the compound of interest of the present invention per well. After completion of the incubation, the incubation mixture was filtered through Whatman GF/B filter (unifilter-96, Lot: 6005177, PerkinElmer) to separate ligand-bound receptors. These bound receptors were washed three times with 5 mL of a Tris-HCl buffer. Then, 10 mL of a scintillation cocktail (Lot: 03999, Fluka) was added and reacted for 16 hrs or longer to measure radiation activity using a beta-counter (Packcard) in order to calculate the quantity of ^125[I] cyanopindolol bound to the receptor.
Meanwhile, 10 μM of serotonin (H9523, Sigma) was incubated in the presence of 10 pM of ^125[I] cyanopindolol to determine a nonspecific binding value. The experiment was independently carried out twice, and receptor affinity was calculated using the following Equation 2. […]

Test [3] in a line: Gastric emptying effect on normal rat, semi-solid test meal. Format: in vivo, Sprague-Dawley rats. The following applies: for Gastric Emptying (%): 45 min before test meal, stomach weighed 35 min after meal. The method, then:
Gastric emptying activity of the compounds of the present invention was examined in the following experiment.
Sprague-Dawley rats, each weighing 200˜250 g, were acclimated for one week at a temperature of 22˜24° C. and a humidity of 60-80% while a standard diet and water were provided, and then were divided into groups according to weight. Thereafter, they were starved for 24 hrs before an experiment while water was provided. From 3 hrs before the experiment, no more water was provided. […] For control 1, only 1 mL of a 3% hydroxypropylmethyl cellulose solution was used while sisapride was orally administered at a dose of 1 mg/kg in 1 mL of a 3% hydroxypropylmethyl cellulose to control 2.
After 45 min, a semi-solid test meal prepared by mashing feeds in water, was orally administered in an amount of 2 mL to each rat. After 35 min, the SD rats were killed, and the stomach containing the semi-solid test meal was excised, and weighed. Subsequently, the stomach was washed with distilled water to remove the gut content, dried, and weighed again, in order to calculate the weight of the semi-solid test meal left in the gut.
Gastric Emptying(%)=[1−(weight of semi-solid test meal left in gut/weight of semi-solid test meal at 0-time)]×100 [Equation 3]
(weight of semi-solid test meal at 0-time means weight of the semi-solid test meal left in the rat killed immediately after the administration of the semi-solid test meal)

T1 sequence (P14416 1-414 isoform P14416-2): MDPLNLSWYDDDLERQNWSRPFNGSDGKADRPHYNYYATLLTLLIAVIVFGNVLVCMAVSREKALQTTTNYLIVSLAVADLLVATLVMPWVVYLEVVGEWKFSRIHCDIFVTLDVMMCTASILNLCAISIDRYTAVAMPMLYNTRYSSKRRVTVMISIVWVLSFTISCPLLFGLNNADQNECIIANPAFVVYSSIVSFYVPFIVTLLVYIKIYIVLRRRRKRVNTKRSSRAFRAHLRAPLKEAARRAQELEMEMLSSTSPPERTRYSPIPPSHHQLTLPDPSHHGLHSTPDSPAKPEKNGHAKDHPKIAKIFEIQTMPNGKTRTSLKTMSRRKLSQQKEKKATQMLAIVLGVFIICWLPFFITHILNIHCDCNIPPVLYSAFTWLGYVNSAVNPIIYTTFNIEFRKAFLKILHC

Take `COc1cc2c(cc1Oc1cc3c(cc1OC)-c1c(OC)c(OC)cc4ccnc(c14)C3=O)CCN1Cc3c(ccc(OC)c3OC)C[C@@H]21` [Compound of Example 1, (S)-1,2,10-Trimethoxy-9-(2,9,10-trimethoxy-5,8,13,13a-tetrahydro-6H-isoquino[3,2-a]isoquinolin-3-yloxy)-dibenzo[de,g]quinolin-7-one]: the figures for the “Affinity (%)” value in test [1] and in test [2] were 91% and 61%, respectively. For the same compound, in test [3] (10 μg/kg oral), the “Gastric Emptying (%)” value is 62.3%. Moreover, in test [3] (10 μg/kg oral, normal rat), the “increase of gastric emptying compared to control 1 (no drug)” value was “roughly two-fold”.

Regarding `COc1cc2c(cc1Oc1cc3c(cc1OC)CC[n+]1cc4c(OC)c(OC)ccc4cc1-3)C[C@@H]1NCCc3cc(OC)c(OC)c-2c31` [Compound of Example 2, (S)-3,9,10-Trimethoxy-2-(1,2,10-trimethoxy-5,6,6a,7-tetrahydro-4H-dibenzo[de,g]quinolin-9-yloxy)-5,6-dihydro-isoquino[3,2-a]isoquinolinylium], the entries for the “Affinity (%)” value in test [1] and in test [2] were 25% and 35%, respectively. In addition, the “Gastric Emptying (%)” value in test [3] (10 μg/kg oral) is on record as 47.3%.

For the compound `COc1cc(N)c(Cl)cc1C(=O)NC1CCN(CCCOc2ccc(F)cc2)CC1OC` (stereo not drawn) [Control 2, sisapride, reference compound], the “Gastric Emptying (%)” value in test [3] (10 mg/kg oral (Table 3)) is 68.9%.

For `COc1ccc(C(=O)NCc2ccc(OCCN(C)C)cc2)cc1OC` [Itopride, reference compound], the “Affinity (%)” value in test [1] turned out to be 75%.
